Results reported in patent US20090068103A1, “APTAMERS LABELED WITH 68GA” (priority 2006, published 2009).
Read-outs that look alike come from different tables or passages of the source.

Experiments:
[1] = biological target: T1, human tenascin-C (Homo sapiens, UniProt P24821); assay: Competition filter binding assay against 99mTc-TTA1-MAG2; conditions: 2 nM human TN-C, 1 nM 99mTc-TTA1-MAG2, competed with unlabeled aptamer, 37° C., 15 min
Procedure: A competition filter binding assay was carried out in order to determine binding constants (EC50). Samples of 2 nM human TN-C were incubated with 1 nM ^99mTc-TTA1-MAG2 in TBSMC buffer (20 mM Tris, pH 7.4; 137 mM NaCl; 1 mM CaCl2; 1 mM MgCl2) and the binding competed with varying concentrations of unlabeled aptamer (see pipetting scheme in FIG. 9.1). Incubation was carried out at 37° C. for 15 min. Subsequently, the solutions were pipetted on a Minifold Device equipped with a supported nitrocellulose membrane and Whatman filter paper and were washed with buffer using vacuum. Residual radioactivity on the filter due to tenascin-C bound labeled aptamer was quantified using a Phosphorimager. EC50 values were calculated using GraphPadPrism 3.02 (San Diego, Calif., USA) plotting one-side competition non-linear regression curves.

[2] = biological target: T1, human tenascin-C; conditions: cited from earlier work

T1 sequence (P24821 23-2201): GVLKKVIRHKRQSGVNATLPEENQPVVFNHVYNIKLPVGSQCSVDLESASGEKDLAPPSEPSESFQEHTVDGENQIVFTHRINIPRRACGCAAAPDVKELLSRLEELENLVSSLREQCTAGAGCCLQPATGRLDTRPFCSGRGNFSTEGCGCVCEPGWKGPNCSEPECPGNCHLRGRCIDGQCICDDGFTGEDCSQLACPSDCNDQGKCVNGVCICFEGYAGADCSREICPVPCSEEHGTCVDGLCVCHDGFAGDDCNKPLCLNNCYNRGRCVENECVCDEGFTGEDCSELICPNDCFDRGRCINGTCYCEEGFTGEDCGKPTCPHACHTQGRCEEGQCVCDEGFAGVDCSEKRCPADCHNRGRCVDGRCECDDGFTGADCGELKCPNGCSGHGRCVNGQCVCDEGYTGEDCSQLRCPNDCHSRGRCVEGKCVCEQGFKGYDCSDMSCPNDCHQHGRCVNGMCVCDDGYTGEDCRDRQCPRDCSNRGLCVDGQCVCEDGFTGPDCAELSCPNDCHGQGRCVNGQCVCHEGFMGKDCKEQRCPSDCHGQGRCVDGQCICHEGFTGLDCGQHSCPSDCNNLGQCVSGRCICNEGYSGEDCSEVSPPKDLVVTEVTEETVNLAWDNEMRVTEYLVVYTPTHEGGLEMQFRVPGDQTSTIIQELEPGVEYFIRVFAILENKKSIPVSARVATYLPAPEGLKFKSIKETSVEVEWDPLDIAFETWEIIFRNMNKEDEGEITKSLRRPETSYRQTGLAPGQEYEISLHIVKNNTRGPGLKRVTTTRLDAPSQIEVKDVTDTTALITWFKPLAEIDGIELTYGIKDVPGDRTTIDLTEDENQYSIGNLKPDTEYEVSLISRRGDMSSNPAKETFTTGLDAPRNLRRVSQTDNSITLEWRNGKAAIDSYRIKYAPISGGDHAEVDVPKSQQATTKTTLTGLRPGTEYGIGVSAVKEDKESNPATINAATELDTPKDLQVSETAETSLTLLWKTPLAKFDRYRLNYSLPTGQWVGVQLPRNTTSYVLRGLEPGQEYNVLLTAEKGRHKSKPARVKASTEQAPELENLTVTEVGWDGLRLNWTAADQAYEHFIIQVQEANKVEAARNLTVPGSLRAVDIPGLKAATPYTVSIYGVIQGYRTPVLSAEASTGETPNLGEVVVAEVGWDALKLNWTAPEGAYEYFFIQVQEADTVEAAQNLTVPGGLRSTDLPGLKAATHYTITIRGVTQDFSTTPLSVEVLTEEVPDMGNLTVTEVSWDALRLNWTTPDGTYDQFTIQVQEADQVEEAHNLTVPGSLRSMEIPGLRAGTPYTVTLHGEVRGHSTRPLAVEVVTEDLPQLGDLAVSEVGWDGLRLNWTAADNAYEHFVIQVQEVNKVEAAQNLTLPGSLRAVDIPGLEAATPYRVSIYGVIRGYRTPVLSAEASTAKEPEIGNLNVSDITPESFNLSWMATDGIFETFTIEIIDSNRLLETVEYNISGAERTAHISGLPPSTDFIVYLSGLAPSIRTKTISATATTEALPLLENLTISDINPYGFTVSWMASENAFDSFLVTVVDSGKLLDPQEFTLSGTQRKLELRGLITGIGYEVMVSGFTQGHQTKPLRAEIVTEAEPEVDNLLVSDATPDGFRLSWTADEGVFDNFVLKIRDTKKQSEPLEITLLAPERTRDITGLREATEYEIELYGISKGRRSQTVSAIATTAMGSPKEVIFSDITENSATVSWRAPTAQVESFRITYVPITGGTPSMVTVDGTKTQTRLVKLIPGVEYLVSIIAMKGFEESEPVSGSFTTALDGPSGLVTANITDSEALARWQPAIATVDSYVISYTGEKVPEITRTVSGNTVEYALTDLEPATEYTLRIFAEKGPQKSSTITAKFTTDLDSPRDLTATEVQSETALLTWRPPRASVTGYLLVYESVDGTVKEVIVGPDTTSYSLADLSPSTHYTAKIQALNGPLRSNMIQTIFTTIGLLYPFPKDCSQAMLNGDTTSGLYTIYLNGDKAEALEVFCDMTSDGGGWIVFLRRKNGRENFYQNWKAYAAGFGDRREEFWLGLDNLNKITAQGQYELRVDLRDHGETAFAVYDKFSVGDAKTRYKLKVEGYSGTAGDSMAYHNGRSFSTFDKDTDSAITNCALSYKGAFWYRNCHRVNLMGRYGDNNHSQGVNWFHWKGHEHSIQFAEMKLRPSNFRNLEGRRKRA

5′-NH2-C6-O-PO2-O-mGmGmG mAmGG mAfCmG-(CH2CH2O)6-fCGfU fCGfC fCGfU mAmAfU mGmGmA fUmGfU fUfUfU mGfCfU fCfCfC UG-3′-3′-T (CGUCGCCGUAAUGGAUGUUUUGCUCCCUG; 2'-OMe/2'-F, 5' aminohexyl, PEG spacer, 3' inverted dT, chemistry not fully specified) [TTA3]
EC50 [1]: 19 nM

5′-mGmGmG mAmGmG mAfCrG-(CH2OCH2)6-fCGfU fCGfC fCGfU mAmAfU mGmGmA fUmGfU fUfUfU mGmCmU mCmCmC-(CH2)6NH2-3′ (CGUCGCCGUAAUGGAUGUUUUGCUCCC; 2'-OMe/2'-F, PEG spacer, 3' aminohexyl, chemistry not fully specified) [TTA8]
EC50 [1]: 14 nM

5′-LGLGLG LALGmG mAfCrG-(CH2OCH2)6-fCGfU fCGfC fCGfU mAmAfU mGmGmA fUmGfU fUfUfU mGLCLU LCLCLC-(CH2)6NH2-3′ (CGUCGCCGUAAUGGAUGUUUUG; LNA/2'-OMe/2'-F, PEG spacer, 3' aminohexyl, chemistry not fully specified) [TTA7]
EC50 [1]: 2 nM

5′-mGmGmG mAmGG mAfCmG-(CH2CH2O)6-fCGfU fCGfC fCGfU mAmAfU mGmGmA fUmGfU fUfUfU mGfCfU fC(C6-NH2)CfC-3′-3′-T (CGUCGCCGUAAUGGAUGUUUUGCUC; 2'-OMe/2'-F, internal C6-amine, PEG spacer, 3' inverted dT, chemistry not fully specified) [TTA4]
EC50 [1]: 20 nM

5′-NH2-C6-O-PO2-O-mGmGmG mAmGG mAfCmG-(CH2CH2O)6-fCGfU fCGfC fCGfU mAmAfU mGmGmA fUmGfU fUfUfU mGfCfU fCfCfC UmG-3′-3′-T (CGUCGCCGUAAUGGAUGUUUUGCUCCCUG; 2'-OMe/2'-F, 5' aminohexyl, PEG spacer, 3' inverted dT, chemistry not fully specified) [TTA2]
EC50 [1]: 31 nM

5′-NH2-C6-O-PO2-O-GGG AGG ACG-(CH2CH2O)6-CGUCGCCGUAAUGGAUGUUUUGCUCCCUG-3′-3′-T (CGUCGCCGUAAUGGAUGUUUUGCUCCCUG; 5' aminohexyl, hexaethylene glycol spacer, 3'-3' inverted dT, chemistry not fully specified) [TTA1]
Kd ([2]; final synthetic oligonucleotide, Hicke et al., read-out: KD): 5 nM | Kd ([2]; human tenascin-C, read-out: binding affinity KD): 5 nM | EC50 [1]: 6 nM

5′-(aminomodifier C2 dT)-mA mGmGmG mAmGG mAfCmG-(CH2CH2O)6-fCGfU fCGfC fCGfU mAmAfU mGmGmA fUmGfU fUfUfU mGfCfU fCfCfC fUmG-3′-3′-T (chain 1 AGGGAGGACG; chain 2 CGUCGCCGUAAUGGAUGUUUUGCUCCCUG; 2'-OMe and 2'-F mix, some positions unassigned, 5' amino-C2 dT, hexaethylene glycol spacer, 3'-3' dT, further chemistry not given here) [TTA5]
EC50 [1]: 39 nM

5′-NH2-C6-O-SPO-O-mGmGmG mAmGG mAfCmG-(CH2CH2O)6-fCGfU fCGfC fCGfU mAmAfU mGmGmA fUmGfU fUfUfU mGfCfU fCfCfC fUmG-3′-3′-T (CGUCGCCGUAAUGGAUGUUUUGCUCCCUG; 5' aminohexyl phosphorothioate, 2'-OMe/2'-F, PEG spacer, inverted dT, chemistry not fully specified) [TTA6]
EC50 [1]: 14 nM
